Test [1] relates to C. neoformans (Strain H99). The test is described as follows: Antifungal sensitivity testing (MIC), C. neoformans H99. The test is classed as cell-based.
Another test addresses C. neoformans Hsp90 NBD (Cryptococcus neoformans, UniProt J9VVA4). Kind of test: biochemical. The test is classed as binding. The following applies: SPR, 25° C., read-out: Biacore KD. The protocol: SPR assays. For SPR experiments, Hsp90 NBD expression constructs were modified to encode a C-terminal AviTag™ for site-specific on-column biotinylation with a BirA biotin-ligase kit (Avidity LLC; BirA-500). SPR experiments were performed on a Biacore T200 instrument at 25° C. Biotinylated Hsp90 NBD was diluted to 40 μg/mL and immobilized on a streptavidin chip (Sensor Chip SA, GE Healthcare) at a density of 2000-2500 response units (RU) on the biosensor surface. […] Resulting sensorgrams were analyzed with a fit to a 1:1 binding model, using BIA evaluation software.

The test system of test [2] is C. albicans clinical isolate (CaCi2). The test is classed as cell-based. The following applies: moderately fluconazole-resistant clinical isolate of C. albicans (CaCi2), 8 μg/mL fluconazole. The protocol: (§1) Color scale bar: no growth inhibition (green) to complete inhibition (black). Each shaded box represents the mean of technical duplicates. The experiment was repeated as an independent biological replicate to confirm results.
(§2) Each shaded box represents the mean of technical duplicates. Relative viable cell number was monitored by standard dye reduction assay after 3-hr incubation with resazurin at 37° C. FIG. 6B: Following exposure to compounds, aliquots of the culture in each well were spotted onto compound-free YPD agar and plates incubated at 30° C. for an additional 24 hours before imaging to assess viability. The entire experiment consisting of growth in liquid culture followed by spotting onto YPD agar was repeated once.
Yeast strains and culture conditions. Strains used in this study were C. albicans CaCi2 (clinical isolate 2), [58] SC5314, [59] and C. neoformans H99. […] Active cultures were maintained on solid (2% agar) yeast extract peptone (YPD, 1% yeast extract, 2% bactopeptone, 2% glucose) at 4° C. for no more than one month.
(§3) Antifungal sensitivity testing. […] Each compound was tested in duplicate in at least two independent experiments. […] Plates were photographed after 24 h of incubation at 30° C.

In a further test the target is C. albicans Hsp90 NBD (Candida albicans (strain SC5314 / ATCC MYA-2876) (Yeast), UniProt P46598). The test is classed as binding. The following applies: equimolar protein and ligand (10 μM). As for the experimental part:
Using recombinant proteins, assay-independent nanomolar inhibitory constants (Ki) were defined for these compounds. Binding of the compounds to their relevant NBD by thermal shift denaturation assays was also confirmed. Thermal shift assays were performed under saturating ligand conditions, i.e. equimolar concentrations (10 μM) of protein and ligand. As a result, they can provide only qualitative evidence of target binding, but not a quantitative measurement of ligand affinity. […] […]. C. neoformans or C. albicans Hsp90 NBD was combined with equimolar concentrations of the indicated bioactive inhibitors (10 μM) or DMSO control, in technical triplicates. The protein was heated from 25 to 98.6° C. at 0.2° C./5 s in the presence of Sypro Orange dye. All compounds induce an increase in melting temperature relative to the DMSO control, reported as ΔTm.
Protein thermal shift assays. Thermal melting curves were determined using a Protein Thermal Shift Kit (ThermoFisher #4462263), employing a CFX384 Real-Time PCR System (Bio-Rad, C1000 Touch Thermal Cycler). […] Temperature shift, ΔTm, was recorded as the difference between the Tm of the fungal Hsp90 NBD with compound minus Tm of the protein without compound.

Test [3] deals with C. albicans clinical isolate (CaCi2). The test is described as follows: Fungicidal activity: spotting of MIC cultures onto compound-free YPD agar. It counts as cell-based. The following applies: C. albicans CaCi2, spotted on YPD agar after 48 h exposure. The protocol:
as §1, §2, §3

C. neoformans Hsp90 NBD, sequence (J9VVA4 1-699): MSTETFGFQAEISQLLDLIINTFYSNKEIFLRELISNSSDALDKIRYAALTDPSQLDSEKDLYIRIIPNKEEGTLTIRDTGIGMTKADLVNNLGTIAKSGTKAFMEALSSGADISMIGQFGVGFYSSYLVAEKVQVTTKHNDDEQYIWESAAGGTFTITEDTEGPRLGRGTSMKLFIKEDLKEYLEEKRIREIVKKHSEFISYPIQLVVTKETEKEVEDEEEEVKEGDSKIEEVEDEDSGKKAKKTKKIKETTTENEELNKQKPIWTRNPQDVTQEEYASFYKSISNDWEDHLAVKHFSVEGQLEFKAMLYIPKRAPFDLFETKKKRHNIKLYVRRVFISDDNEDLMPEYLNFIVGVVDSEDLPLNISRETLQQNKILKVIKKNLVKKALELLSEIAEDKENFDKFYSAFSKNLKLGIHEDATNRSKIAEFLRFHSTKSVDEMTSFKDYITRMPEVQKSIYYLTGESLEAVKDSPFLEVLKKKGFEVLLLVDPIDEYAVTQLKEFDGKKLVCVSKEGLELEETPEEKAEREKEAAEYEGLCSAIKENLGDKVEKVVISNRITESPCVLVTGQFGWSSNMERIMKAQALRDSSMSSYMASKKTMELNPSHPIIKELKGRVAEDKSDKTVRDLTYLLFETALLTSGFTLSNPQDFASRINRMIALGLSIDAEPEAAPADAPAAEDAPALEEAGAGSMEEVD
C. albicans Hsp90 NBD, sequence (P46598 1-240 limits assumed): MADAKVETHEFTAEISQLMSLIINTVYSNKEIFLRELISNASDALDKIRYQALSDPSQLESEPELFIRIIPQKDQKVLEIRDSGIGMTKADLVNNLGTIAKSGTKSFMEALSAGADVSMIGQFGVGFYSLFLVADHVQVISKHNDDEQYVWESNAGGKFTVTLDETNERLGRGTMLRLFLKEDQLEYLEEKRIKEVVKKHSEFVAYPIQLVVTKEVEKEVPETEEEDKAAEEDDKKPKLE

With `Cn1nc(-c2ccc(OC(F)(F)F)cc2)cc1Nc1cc(O)cc(O)c1C(=O)N1Cc2ccccc2C1` [Compound 130, 4-(2,3-Dihydro-1H-isoindole-2-carbonyl)-5-((1-methyl-3-(4-(trifluoromethoxy)phenyl)-1H-pyrazol-5-yl)amino)benzene-1,3-diol], in test [1] (Cryptococcus neoformans, read-out: C. neo MIC80), the MIC80 was greater than 25 µM. Also, the MIC90 in test [1] (Cryptococcus neoformans, read-out: C. neo MIC90) is greater than 25 µM. In test [1] (Yes/No call), the “C. neo Active (cells)” value was “No”. Besides, on C. neoformans Hsp90 NBD, the dissociation constant (Kd) was found to be 7 nM. Moreover, the “MIC in combination with fluconazole” value in test [2] was 12.5 µM. The “C. albicans NBD ΔTm” value on C. albicans Hsp90 NBD was found to be 9 °C. Moreover, the “fungicidal activity in combination with fluconazole” value in test [3] was “converted the fungistatic activity of fluconazole to fungicidal”.

Values taken from patent US11312722B2, “Hsp90 inhibitors and uses thereof” (TRUSTEES OF BOSTON UNIVERSITY, priority 2019, dated 2022).
